Consider 14 compounds from US6355658B1, “Coumarin derivatives, methods of preparation and application as medicines” (Centre National de la Recherche Scientifique, priority 1997, dated 2002).

The target of series [1] is T1, human leukocyte elastase (Homo sapiens, UniProt P08246).
T1 sequence (P08246 30-247 limits assumed): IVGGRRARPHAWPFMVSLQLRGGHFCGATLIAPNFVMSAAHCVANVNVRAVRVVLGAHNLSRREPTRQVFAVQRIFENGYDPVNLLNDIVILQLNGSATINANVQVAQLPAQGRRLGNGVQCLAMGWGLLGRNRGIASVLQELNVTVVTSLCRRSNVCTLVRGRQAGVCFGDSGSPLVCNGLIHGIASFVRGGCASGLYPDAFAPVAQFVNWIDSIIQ
Put plainly: Inactivation kinetics of human leukocyte elastase (chromogenic substrate MeOSuc-Ala2-Pro-Val-pNA). As to conditions: 25° C., pH 8.0. It counts as biochemical. The protocol: (§1) The inactivating or inhibitory properties of the coumarin derivatives were tested with respect to a certain number of enzymes: human leukocyte elastase, bovine α-chymotrypsin, human thrombin and bovine trypsin. The kinetic measurements were taken at 25° C. in the following buffers: 0.1 M Hepes, 0.5 M NaCl, 0.01% Tween 80, pH 8.0 (human leukocyte elastase); 0.025 M NaH2PO4, 0.05 M KCl, pH 7.5 (α-chymotrypsin); 0.01 M Tris, 0.01 M Hepes, 0.1 M NaCl, 0.1% PEG-6000, pH 7.5 (human thrombin); 0.1 M Tris, 0.01 M CaCl2, pH 7.5 (bovine trypsin). The chromogenic substrates used to determine the activity of the enzymes are: MeOSuc-Ala2-Pro-Val-pNA (human leukocyte elastase); Suc-Ala2-Pro-Phe-pNA (α-chymotrypsin); H-D-Phe-Pip-Arg-pNA (human thrombin); N-benzoyl-Arg-pNA (bovine trypsin) (pNA: para-nitroaniline).
(§2) The interaction of a suicide substrate with a serine protease corresponds to the minimum reaction scheme described in equation 1 in which E represents the enzyme, I represents the inhibitor, E-I represents the acyl-enzyme and E-I′ represents the inactivated enzyme [Silverman R. B., 1988, “Mechanism-based enzyme inactivation: chemistry and enzymology”, volume 1 CRC Press, Boca Raton, Fla.]: [drawing 76]
(§3) When k4 is small compared to k3, equation 1 can be simplified (equation 2, [Daniels et al., 1983, J. Biol. Chem., 258: 15046-15053]): [drawing 77]
(§4) Considering the first instants of the reaction, the system reduces to a simplified equation of the form of equation 2.
(§5) The kinetic constants characterizing the inactivation of the enzymes with the coumarin derivatives were determined using either the conventional sampling method (or batchwise method) or a method placing the inhibitor and the substrate in competition (or continuous method); these methods are described by Pochet et al. [Pochet et al., 1996, J. Med. Chem., 39: 2579-2585].
(§6) The inactivation of serine proteaaes with the coumarin derivatives is thus characterized by the following constants (see Eq. 2):
(§7) KI: apparent dissociation constant of an enzyme-inhibitor complex located upstream of ki
(§8) ki: first-order rate constant for inactivation at infinite inhibitor concentration
(§9) ki/KI: index of the overall inactivating efficacy of the inhibitor.

Series [2] addresses T2, bovine α-chymotrypsin (Bos taurus, UniProt P00766).
T2 construct: bovine α-chymotrypsin
Description: Inactivation kinetics of bovine α-chymotrypsin (chromogenic substrate Suc-Ala2-Pro-Phe-pNA). It counts as biochemical. As to conditions: 25° C., pH 7.5, N.I. = non-inactivator; for kinact/KI: read-out: Ki/KI or kobs/[I], α-CT. On the procedure:
as §1, §2, §3, §4, §5, §6, §7, §8, §9

Series [3] addresses T3, human thrombin (Homo sapiens, UniProt P00734).
T3 construct: human thrombin
Put plainly: Inactivation kinetics of human thrombin (chromogenic substrate H-D-Phe-Pip-Arg-pNA). It counts as biochemical. The settings on record: TABLE 5, phenyl esters, 25° C., pH 7.5, inactivation phase, N.I. = non-inactivator; for kinact/KI: read-out: Ki/KI or kobs/[I], Thrombin. The protocol:
as §1, §2, §3, §4, §5, §6, §7, §8, §9

The mark [4] stands for this setting: TABLE 5, phenyl esters, without 6-chloromethyl: inactivation phase of transient inactivation.
Where [5] appears, read: TABLE 5, phenyl esters, inactivation phase, N.I. = non-inactivator, read-out: Ki/KI or kobs/[I], HLE.

SMILES strings stand for the structures. Where two headings read alike, the source gives them in different places. Bounds are passed on as bounds.

`O=C(Sc1ccccc1)c1cc2cc(CCl)ccc2oc1=O` [III1, S-phenyl 6-chloromethyl-2-oxo-2H-1-benzopyran-3-carbothioate]: the “Ki/KI or kobs/[I], HLE” value in series [1] (TABLE 5, phenyl esters, inactivation phase, N.I. = non-inactivator) is listed as “N.I”. Moreover, in series [2] (setting [4]), the kinact/KI was determined as 39000 M⁻¹ s⁻¹.
Usually melting point stands for the temperature of the solid-liquid transition. On to `O=C(Oc1cc(Cl)ccc1Cl)c1cc2ccccc2oc1=O` [Ia4, 2,5-dichlorophenyl 2-oxo-2H-1-benzopyran-3-carboxylate], for which the melting point was 189 to 192 °C. In addition, the “Ki/KI or kobs/[I], Thrombin” value in series [3] is listed as “N.I”. In addition, in series [1] (setting [5]), the kinact/KI was 5800 M⁻¹ s⁻¹.
For `O=C(Oc1cc(F)ccc1F)c1cc2ccccc2oc1=O` [Ia5, 2,5-difluorophenyl 2-oxo-2H-1-benzopyran-3-carboxylate], the melting point lay in the range of 134 to 137 °C. Also, the “Ki/KI or kobs/[I], Thrombin” value in series [3] is on record as “N.I”.
As to `Cc1ccc2oc(=O)c(C(=O)Oc3cccc(Cl)c3)cc2c1` [Ib1, 3-chlorophenyl 6-methyl-2-oxo-2H-1-benzopyran-3-carboxylate], the melting point was in the range of 175 to 176 °C. For the same compound, in series [1] (setting [5]), the kinact/KI came to 1100 M⁻¹ s⁻¹. Besides, in series [2] (setting [4]), the kinact/KI was 9400 M⁻¹ s⁻¹.
In turn, `Cc1ccc2oc(=O)c(C(=O)Oc3cc(Cl)ccc3Cl)cc2c1` [Ib3, 2,5-dichlorophenyl 6-methyl-2-oxo-2H-1-benzopyran-3-carboxylate] had a melting point of 175 to 179 °C. For the same compound, the kinact/KI in series [1] (setting [5]) came out at 3000 M⁻¹ s⁻¹.
In the case of `O=C(Oc1ccccc1[N+](=O)[O-])c1cc2cc(CCl)ccc2oc1=O` [Ic″1, 2-nitrophenyl 6-chloromethyl-2-oxo-2H-1-benzopyran-3-carboxylate], the melting point is 163 to 164 °C. Further, the kinact/KI in series [1] (setting [5]) worked out at 1250 M⁻¹ s⁻¹. In addition, the kinact/KI in series [2] (setting [4]) is 9300 M⁻¹ s⁻¹.
For `O=C(Oc1cccc(C(F)(F)F)c1)c1cc2cc(CCl)ccc2oc1=O` [Ic″2, 3-trifluoromethylphenyl 6-chloromethyl-2-oxo-2H-1-benzopyran-3-carboxylate] the same measures were 162 to 163 °C, 330 M⁻¹ s⁻¹ and below 500 M⁻¹ s⁻¹.
Regarding `O=C(Oc1cccc(Cl)c1Cl)c1cc2cc(CCl)ccc2oc1=O` [Ic″3, 2,3-dichlorophenyl 6-chloromethyl-2-oxo-2H-1-benzopyran-3-carboxylate], the “Ki/KI or kobs/[I], Thrombin” value in series [3] is reported as “— — — — N.I. N.I”. For the same compound, the kinact/KI in series [1] (setting [5]) is below 200 M⁻¹ s⁻¹; in series [2] (setting [4]), 1200 M⁻¹ s⁻¹.
On to `O=C(Oc1c(Cl)cccc1Cl)c1cc2cc(CCl)ccc2oc1=O` [Ic″5, 2,6-dichlorophenyl 6-chloromethyl-2-oxo-2H-1-benzopyran-3-carboxylate], for which the “Ki/KI or kobs/[I], Thrombin” value in series [3] was “— — — — N.I. N.I”. For the same compound, the kinact/KI in series [1] (setting [5]) was below 200 M⁻¹ s⁻¹. For the same compound, the “Ki/KI or kobs/[I], α-CT” value in series [2] (setting [4]) is reported as “N.I”.
Regarding `O=C(Oc1cc(Cl)cc(Cl)c1)c1cc2cc(CCl)ccc2oc1=O` [Ic″6, 3,5-dichlorophenyl 6-chloromethyl-2-oxo-2H-1-benzopyran-3-carboxylate], the “Ki/KI or kobs/[I], Thrombin” value in series [3] was “N.I”. For the same compound, the kinact/KI came out at 4000 M⁻¹ s⁻¹ in series [1] (setting [5]) and 110000 M⁻¹ s⁻¹ in series [2] (setting [4]).
For the compound `COc1cc(Cl)cc(OC(=O)c2cc3cc(CCl)ccc3oc2=O)c1` [Ic″7, 3-chloro-5-methoxyphenyl 6-chloromethyl-2-oxo-2H-1-benzopyran-3-carboxylate], the kinact/KI in series [1] (setting [5]) came out at 350 M⁻¹ s⁻¹; in series [2] (setting [4]) it was 1200 M⁻¹ s⁻¹.
`CC(=O)OCc1ccc2oc(=O)c(C(=O)Oc3cc(Cl)ccc3Cl)cc2c1` [Id11, 2,5-dichlorophenyl 6-acetoxymethyl-2-oxo-2H-1-benzopyran-3-carboxylate] yielded a melting point of 168 to 171 °C. Besides, in series [3], the kinact/KI was found to be 500 M⁻¹ s⁻¹.
`CC(=O)OCc1ccc2oc(=O)c(C(=O)Oc3cc(F)ccc3F)cc2c1` [Id12, 2,5-difluorophenyl 6-acetoxymethyl-2-oxo-2H-1-benzopyran-3-carboxylate] had a melting point of 137 to 139 °C. For the same compound, the kinact/KI in series [3] came to 150 M⁻¹ s⁻¹.
Turning to `O=C(Oc1cncc(Cl)c1)c1cc2cc(Br)ccc2oc1=O` [Ig1, 5-chloro-3-pyridyl 6-bromo-2-oxo-2H-1-benzopyran-3-carboxylate], the kinact/KI in series [1] (TABLE 3, no chloromethyl in position 6, inactivation phase of transient inactivation, read-out: Ki/KI or kobs/[I], LHE) worked out at 58000 M⁻¹ s⁻¹. Further, the “Ki/KI or kobs/[I], α-CT” value in series [2] (TABLE 3, no chloromethyl in position 6) is “# N.I”.
